Here are results for five compounds from patent US12655185B2, “Peptide inhibitors of interleukin-23 and their use to treat inflammatory diseases” (Protagonist Therapeutics, Inc., priority 2016, dated 2026).

Assay [1] addresses T1, IL-23 binding to IL23R_huFC (human IL-23R) (Homo sapiens, UniProt P29460+Q9NPF7).
T1 sequence (Q9NPF7 20-189): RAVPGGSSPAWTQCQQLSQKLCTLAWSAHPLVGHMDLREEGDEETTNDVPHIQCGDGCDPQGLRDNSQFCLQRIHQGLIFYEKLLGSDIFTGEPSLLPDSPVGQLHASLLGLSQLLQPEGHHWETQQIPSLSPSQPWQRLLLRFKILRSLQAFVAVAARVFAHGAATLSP
T1 sequence (P29460 23-328): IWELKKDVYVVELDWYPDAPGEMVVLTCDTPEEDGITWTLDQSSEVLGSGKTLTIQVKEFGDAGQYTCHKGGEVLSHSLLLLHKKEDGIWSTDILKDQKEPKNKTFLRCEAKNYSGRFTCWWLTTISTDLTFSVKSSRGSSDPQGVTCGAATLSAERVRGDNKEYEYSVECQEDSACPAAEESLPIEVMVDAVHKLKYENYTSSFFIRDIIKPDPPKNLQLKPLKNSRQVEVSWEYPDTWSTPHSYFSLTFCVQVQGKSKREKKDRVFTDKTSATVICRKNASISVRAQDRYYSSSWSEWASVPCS
Description: IL23-IL23R Competitive Binding ELISA. Particulars: inhibition of IL-23/IL-23R binding; IL-23 0.9 nM; class symbols; read-out: IC50 IL23R_huFC. The method, then:
Immulon® 4HBX plate was coated with 200 ng/well of IL23R_huFC and incubated overnight at 4° C. […] Serial dilutions of test peptides and IL-23 at a final concentration of 0.9 nM diluted in PBS were added to each well and incubated for 2 hours at room temperature. After the wells were washed, bound IL-23 was detected by incubation with 50 ng/well of goat anti-p40 polyclonal antibodies (R&D Systems #AF309) diluted in PBS for 1 hour at room temperature. The wells were again washed four times with PBST. […] The plate was finally washed as above. Signals were visualized with TMB One Component HRP Membrane Substrate, quenched with 2 M sulfuric acid and read spectrophotometrically at 450 nm.
Background: In an ELISA, binding on a coated surface is turned into a signal by an enzyme label.

For assay [2], the target named is T2, IL-23 binding to human IL-12Rβ1_huFC (Homo sapiens, UniProt P29460+Q9NPF7).
T2 sequence (Q9NPF7 20-189): T1 sequence (Q9NPF7 20-189)
T2 sequence (P29460 23-328): T1 sequence (P29460 23-328)
Description: Human IL23/IL12Rβ1 huFc ELISA. Particulars: result in words. Here is the method: The ability of Peptide 10 to block binding of IL-23 to IL-12Rβ1 or binding of IL-12 to IL-12Rβ1 was also determined. Human IL-12Rβ1 ELISA assays were performed as follows: an assay plate was coated with 100 ng/well of human IL-12Rβ1_huFC and incubated overnight at 4° C. The wells were washed, blocked, and washed again. Serial dilutions of test peptides and either IL-23 or IL-12 at a fixed concentration corresponding to EC50 values were added to each well, and incubated for 2 hours at room temperature. After the wells were washed, bound IL-23 were detected with goat anti-p40 polyclonal antibodies followed by an HRP conjugated donkey anti-goat IgG, and bound IL-12 were detected with a biotin conjugated anti-p40 monoclonal antibody followed by HRP conjugated streptavidin. Signals were visualized with TMB One Component HRP Membrane Substrate and quenched with 2 M sulfuric acid.

For assay [3], the system named is human IL-23-dependent release of IL-17 from mouse splenocytes. Description: Mouse splenocyte assay. In kind it is cell-based. The conditions noted are these: IL-17A release; IL-23 20 ng/mL; 67 hours. The method, then: Frozen mouse splenocytes (Hooke Lab), suspended in RPMI Medium 1640 (Life technologies #22400-089) supplemented with 10% heat inactivated FBS (Life technologies #16140-071), 1×MEM Non-Essential Amino Acid Solution (Life technologies #11140-050), 1 mM sodium pyruvate (Life technologies #11360-070), 100 units of Penicillin-Streptomycin (Life technologies #15140-122, 0.05 mM 2-mercaptoethanol (Life technologies #21985-023) and recombinant human IL-2 (R&D Systems #202-IL-010/CF), were seeded at 4×10E5 cells/well in a 96 well tissue culture plate. Serial dilutions of test peptides and IL-23 at a final concentration of 20 ng/mL were preincubated in a separate assay plate for 60 minutes at 37° C. in a 5% CO2 humidified incubator. Preincubated samples were then added to the culture plate containing splenocytes and incubated for an additional 67 hours at 37° C. in a 5% CO2 humidified incubator. A sandwich ELISA kit for mouse IL17A (Biolegend #436204) was used to measure the amount of IL-17A in each sample supernatants, according to manufacturer's instructions.

Broadly, the IC50 is the point on the concentration scale where inhibition reaches its midpoint.

Bridge positions count the residues as written; N and C are the ends. Peptide text beside a SMILES is read from it.

Turning to `CC[C@H](C)[C@@H]1NC(=O)[C@H](CCCCN)NC(=O)[C@H](C)NC(=O)[C@H](Cc2c[nH]c3ccccc23)NC(=O)[C@H](C)NC(=O)[C@H](CCC(N)=O)NC(=O)[C@H](CCC(=O)O)NC(=O)[C@H](CCC(N)=O)NC(=O)[C@H](CC(N)=O)NC(=O)[C@H](CC(C)C)NC(=O)[C@H](CC(N)=O)NC(=O)[C@@H]2CCCN2C(=O)[C@H](CC(=O)O)NC(=O)[C@H](C(C)C)NC(=O)CNC(=O)[C@H](C)NC(=O)[C@H](CCC(=O)O)NC(=O)[C@H](CO)NC(=O)[C@H](CCSC)NC(=O)[C@H](CCCNC(=N)N)NC(=O)[C@H](CCCNC(=N)N)NC(=O)[C@H](CC(C)C)NC(=O)[C@@H](NC(=O)[C@H](CCC(N)=O)NC(=O)[C@H](CCSC)NC(=O)[C@H](CC(N)=O)NC(=O)[C@H](Cc2ccccc2)NC(C)=O)CSSC[C@@H](C(N)=O)NC(=O)[C@H](CC(=O)O)NC(=O)[C@H](CC(=O)O)NC(=O)[C@H](CCSC)NC(=O)[C@H]([C@@H](C)CC)NC(=O)[C@H](CO)NC(=O)[C@H](CCCCN)NC1=O` [Peptide 19] (Ac-FNMQCLRRMSEAGVDPNLNQEQAWAKIKSIMDDC-NH2; disulfide 5-34), in assay [1], the IC50 lay in the range of 1 to 10 µM.
On the same count and under the same terms, to `CC[C@H](C)[C@@H]1NC(=O)[C@H](CCCCN)NC(=O)[C@H](C)NC(=O)[C@H](C)NC(=O)[C@H](CCCNC(=N)N)NC(=O)[C@H](CCC(N)=O)NC(=O)[C@H](CCC(=O)O)NC(=O)[C@H](CCC(N)=O)NC(=O)[C@H](CC(N)=O)NC(=O)[C@H](CC(C)C)NC(=O)[C@H](CC(N)=O)NC(=O)[C@@H]2CCCN2C(=O)[C@H](CC(=O)O)NC(=O)[C@H](C(C)C)NC(=O)CNC(=O)[C@H](C)NC(=O)[C@H](CCC(=O)O)NC(=O)[C@H](CO)NC(=O)[C@H](CCSC)NC(=O)[C@H](CCCNC(=N)N)NC(=O)[C@H](CCCNC(=N)N)NC(=O)[C@H](CC(C)C)NC(=O)[C@@H](NC(=O)[C@H](CCC(N)=O)NC(=O)[C@H](CCSC)NC(=O)[C@H](CC(N)=O)NC(=O)[C@H](Cc2ccccc2)NC(C)=O)CSSC[C@@H](C(N)=O)NC(=O)[C@H](CC(=O)O)NC(=O)[C@H](CC(=O)O)NC(=O)[C@H](CCSC)NC(=O)[C@H]([C@@H](C)CC)NC(=O)[C@H](CO)NC(=O)[C@H](CCCCN)NC1=O` [Peptide 20] (Ac-FNMQCLRRMSEAGVDPNLNQEQRAAKIKSIMDDC-NH2; disulfide 5-34) belongs 1 to 10 µM; to `CC[C@H](C)[C@@H]1NC(=O)[C@H](CO)NC(=O)[C@H](CCCCN)NC(=O)[C@H](C)NC(=O)[C@H](CCCCN)NC(=O)[C@H](C)NC(=O)[C@H](Cc2c[nH]c3ccccc23)NC(=O)[C@H](CCCNC(=N)N)NC(=O)[C@H](CCC(N)=O)NC(=O)[C@H](CCC(=O)O)NC(=O)[C@H](CCC(N)=O)NC(=O)[C@H](CC(N)=O)NC(=O)[C@H](CC(C)C)NC(=O)[C@H](CC(N)=O)NC(=O)[C@@H]2CCCN2C(=O)[C@H](CC(=O)O)NC(=O)[C@H](C(C)C)NC(=O)CNC(=O)[C@H](C)NC(=O)[C@H](CCC(=O)O)NC(=O)[C@H](CO)NC(=O)[C@H](CCSC)NC(=O)[C@H](CCCNC(=N)N)NC(=O)[C@H](CCCNC(=N)N)NC(=O)[C@H](CC(C)C)NC(=O)[C@@H](NC(=O)[C@H](CCC(N)=O)NC(=O)[C@H](CCSC)NC(=O)[C@H](CC(N)=O)NC(=O)[C@H](Cc2ccccc2)NC(C)=O)CSSC[C@@H](C(N)=O)NC(=O)[C@H](CC(=O)O)NC(=O)[C@H](CC(=O)O)NC(=O)[C@H](CCSC)NC1=O` [Peptide 21] (Ac-FNMQCLRRMSEAGVDPNLNQEQRWAKAKSIMDDC-NH2; disulfide 5-34), 1 to 10 µM.
Still for that read-out and setting: to `CC[C@H](C)[C@@H]1NC(=O)[C@H](CCCCN)NC(=O)[C@H](C)NC(=O)[C@H](Cc2c[nH]c3ccccc23)NC(=O)[C@H](CCCNC(=N)N)NC(=O)[C@H](CCC(N)=O)NC(=O)[C@H](CCC(=O)O)NC(=O)[C@H](CCC(N)=O)NC(=O)[C@H](CC(N)=O)NC(=O)[C@H](CC(C)C)NC(=O)[C@H](CC(N)=O)NC(=O)[C@@H]2CCCN2C(=O)[C@H](CC(=O)O)NC(=O)[C@H](C(C)C)NC(=O)CNC(=O)[C@H](C)NC(=O)[C@H](CCC(=O)O)NC(=O)[C@H](CO)NC(=O)[C@H](CCSC)NC(=O)[C@H](CCCNC(=N)N)NC(=O)[C@H](CCCNC(=N)N)NC(=O)[C@H](CC(C)C)NC(=O)[C@@H](NC(=O)[C@H](CCC(N)=O)NC(=O)[C@H](CCSC)NC(=O)[C@H](CC(N)=O)NC(=O)[C@H](Cc2ccccc2)NC(C)=O)CSSC[C@@H](C(N)=O)NC(=O)[C@H](CC(=O)O)NC(=O)[C@H](CC(=O)O)NC(=O)[C@H](CCSC)NC(=O)[C@H]([C@@H](C)CC)NC(=O)[C@H](CO)NC(=O)[C@H](C)NC1=O` [Peptide 22] (Ac-FNMQCLRRMSEAGVDPNLNQEQRWAKIASIMDDC-NH2; disulfide 5-34) belongs 1 to 10 µM.
With “Ustekinumab: a humanized antibody that binds IL-23 (p40 subunit), approved for the treatment of psoriasis [reference compound]”, in assay [2], the “blocking of binding of IL-23 to IL-12Rβ1” value is given as “blocked”. Further, the Mouse splenocyte assay in assay [3] was found to be 0.06 µg/mL.
